The target of assay [1] is T1, M2 proton channel of the influenza A virus (Influenza A virus, UniProt P0DOF5, C19S/C50S). The assay is classed as binding, influenza A virus (A/Udorn).
In assay [2] the target is T1, M2 proton channel of the influenza A virus. It is filed as binding, influenza A virus (A/Udorn). The note with it: pH 7.5, 40 mM rimantadine, 0.75 mM M2(18-60) monomer, 300 mM DHPC, four NOESY spectra.

As to `CC(N)C12CC3CC(CC(C3)C1)C2` (stereo not drawn) [rimantadine], the “affinity for the open state of the channel” value in assay [1] (pH 6) is recorded as “much lower affinity, if any, for the open state”. For the same molecule, in assay [1] (pH 7), the “effect of binding on channel conformation” value was “stabilizes the closed conformation”. Also, the “location of binding site from protein-rimantadine NOEs” value in assay [2] was “between adjacent helices at the C-terminal end of the TM domain near the Trp41 gate, on the membrane side of the channel”.

The record behind these values is patent US20110003393A1, “SYSTEMS AND METHODS FOR STUDYING INFLUENZA” (President and Fellows of Harvard College, priority 2007, published 2011).
